Structures can show the parent of a compound that is named as a salt.

The target in assay [1] is T1, furin (endogenous protease) in U20S cells (Homo sapiens, UniProt P09958).
T1 construct: the endogenous protease cleaves GFP; endogenous in cells; host or cells: U2OS cells transduced with a BacMam reporter
The experiment in a line: Furin cell-based assay (image-based, Golgi-targeted GFP with BMP10 furin/PCSK cleavage site).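 Further: Read-out is mean GFP fluorescence of Golgi puncta per cell by high-content imaging, retained when furin inhibited, over an eleven-point 0.00017–10 µM series, four-parameter fit.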 The settings on record: 24-hour incubation, read-out: furin golgi cell pXC50 (converted).

For assay [2], the target named is T2, Furin (108-574-Tev-Flag-His) enzyme (Homo sapiens, UniProt P09958).
T2 construct: Furin (108-574-Tev-Flag-His) enzyme was expressed and purified from CHO cells; TEV cleavage site (C); FLAG (C); His (C); made in house; host or cells: CHO cells
T2 sequence (P09958 108-574): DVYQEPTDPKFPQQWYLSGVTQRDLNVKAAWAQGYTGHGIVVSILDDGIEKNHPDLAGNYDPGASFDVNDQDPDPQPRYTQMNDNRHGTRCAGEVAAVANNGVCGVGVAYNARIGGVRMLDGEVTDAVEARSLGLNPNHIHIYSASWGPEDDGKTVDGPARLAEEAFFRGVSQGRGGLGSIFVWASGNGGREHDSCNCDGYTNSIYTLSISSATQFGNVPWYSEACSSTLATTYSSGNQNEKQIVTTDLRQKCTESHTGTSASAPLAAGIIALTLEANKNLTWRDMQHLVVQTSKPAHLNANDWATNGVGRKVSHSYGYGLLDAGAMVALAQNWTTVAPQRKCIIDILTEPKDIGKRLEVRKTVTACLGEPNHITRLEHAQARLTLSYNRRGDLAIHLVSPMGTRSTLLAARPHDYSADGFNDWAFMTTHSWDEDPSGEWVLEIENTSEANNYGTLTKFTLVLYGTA
The experiment in a line: Furin enzyme assay. Type of assay: biochemical. In outline:
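Compounds ran as 11-point threefold dilutions (0.00017–10 μM final) against 40 pM furin, purified from CHO cells, for 2 h at room temperature. Buffer: 100 mM HEPES pH7.5 with 1 mM CaCl2 and 0.005% Triton X-100. Envision readout. Four-parameter curve gives pXC50.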

T1 sequence (P09958 108-794): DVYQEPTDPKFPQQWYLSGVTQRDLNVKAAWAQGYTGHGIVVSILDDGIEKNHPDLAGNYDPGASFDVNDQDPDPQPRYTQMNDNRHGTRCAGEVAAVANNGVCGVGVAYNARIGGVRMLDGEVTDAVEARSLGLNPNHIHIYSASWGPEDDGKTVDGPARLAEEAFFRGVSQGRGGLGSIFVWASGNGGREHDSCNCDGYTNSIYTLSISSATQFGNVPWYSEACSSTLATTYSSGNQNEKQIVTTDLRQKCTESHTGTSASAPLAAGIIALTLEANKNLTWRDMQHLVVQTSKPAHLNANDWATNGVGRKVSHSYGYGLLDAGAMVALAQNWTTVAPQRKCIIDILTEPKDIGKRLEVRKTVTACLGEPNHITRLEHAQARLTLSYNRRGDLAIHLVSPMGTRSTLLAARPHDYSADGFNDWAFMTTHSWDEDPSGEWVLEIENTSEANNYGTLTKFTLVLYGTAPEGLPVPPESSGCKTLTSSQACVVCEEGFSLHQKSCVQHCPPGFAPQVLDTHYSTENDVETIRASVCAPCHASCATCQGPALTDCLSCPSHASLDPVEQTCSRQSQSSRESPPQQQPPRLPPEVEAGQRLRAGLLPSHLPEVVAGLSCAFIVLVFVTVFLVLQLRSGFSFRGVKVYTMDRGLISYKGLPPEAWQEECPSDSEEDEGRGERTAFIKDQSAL

Take `CC(=O)NCC1CCN(Cc2cc(-c3cc(Cl)cc(Cl)c3)nc(Oc3cnc(N4CCN(CCC(C)C(=O)O)CC4)nc3)c2F)CC1` (centres unmarked) [Example 381, 4-(4-(5-((4-((4-(acetamidomethyl)piperidin-1-yl)methyl)-6-(3,5-dichlorophenyl)-3-fluoropyridin-2-yl)oxy)pyrimidin-2-yl)piperazin-1-yl)-2-methylbutanoic acid]: the EC50 in assay [1] was 10 nM. The “furin enzyme pIC50” value in assay [2] came to 8.9.
For `CN1CCN(c2ccc(Oc3cc(CN4CCC(CC(=O)O)CC4)cc(-c4cc(Cl)cc(Cl)c4)n3)cn2)CC1` [Example 212, 2-(1-((2-(3,5-dichlorophenyl)-6-((6-(4-methylpiperazin-1-yl)pyridin-3-yl)oxy)pyridin-4-yl)methyl)piperidin-4-yl)acetic acid] the same measures were 31.6 nM and 9.
As for `CC(=O)NCC1CCN(Cc2cc(Oc3cnc(N4CCN(CC(C)C(N)=O)CC4)nc3)nc(-c3cc(Cl)cc(Cl)c3)c2)CC1` (centres unmarked) [Example 284, 3-(4-(5-((4-((4-(acetamidomethyl)piperidin-1-yl)methyl)-6-(3,5-dichlorophenyl)pyridin-2-yl)oxy)pyrimidin-2-yl)piperazin-1-yl)-2-methylpropanamide], the EC50 in assay [1] was 1.26 nM. The “furin enzyme pIC50” value in assay [2] was determined as 10.1.
For `NC(=O)CN1CCN(Cc2cc(Oc3cnc(N4CCN(CCC(=O)O)CC4)nc3)nc(-c3cc(Cl)cc(Cl)c3)c2)CC1` [Example 79, 3-(4-(5-((4-((4-(2-amino-2-oxoethyl)piperazin-1-yl)methyl)-6-(3,5-dichlorophenyl)pyridin-2-yl)oxy)pyrimidin-2-yl)piperazin-1-yl)propanoic acid], in that order: 79.4 nM and 8.3.
For `CN1CCN(c2ncc(Oc3cc(CN4CCC(CC(O)C(=O)O)CC4)cc(-c4cc(Cl)cc(Cl)c4)n3)cn2)CC1` (centres unmarked) [Example 139, 3-(1-((2-(3,5-dichlorophenyl)-6-((2-(4-methylpiperazin-1-yl)pyrimidin-5-yl)oxy)pyridin-4-yl)methyl)piperidin-4-yl)-2-hydroxypropanoic acid] the same measures were 10 nM and 9.3.
As for `CN1CCCN(c2ccc(Oc3cc(CN4CC[C@@H]5[C@H](CC4)[C@H]5C(=O)O)cc(-c4cc(Cl)cc(Cl)c4)n3)nn2)CC1` [Example 362, (1R,7S,8r)-4-((2-(3,5-dichlorophenyl)-6-((6-(4-methyl-1,4-diazepan-1-yl)pyridazin-3-yl)oxy)pyridin-4-yl)methyl)-4-azabicyclo[5.1.0]octane-8-carboxylic acid], the EC50 in assay [1] is 25.1 nM. Also, the IC50 in assay [2] (read-out: furin enzyme pIC50 (converted)) is 0.0316 nM.
As to `CC(=O)NCC1CCN(Cc2cc(Oc3cnc(N4CCN(CCCS(N)(=O)=O)CC4)nc3)nc(-c3cc(Cl)cc(Cl)c3)c2)CC1` [Example 253, N-((1-((2-(3,5-dichlorophenyl)-6-((2-(4-(3-sulfamoylpropyl)piperazin-1-yl)pyrimidin-5-yl)oxy)pyridin-4-yl)methyl)piperidin-4-yl)methyl)acetamide], in assay [1], the EC50 was 2.51 nM. The “furin enzyme pIC50” value in assay [2] is given as 9.7.
For `CC(O)CCN1CCN(c2cnc(Oc3cc(CN4CCC(CC(=O)O)CC4)cc(-c4cc(Cl)cc(Cl)c4)n3)cn2)CC1` (centres unmarked) [Example 349, 2-(1-((2-(3,5-dichlorophenyl)-6-((5-(4-(3-hydroxybutyl)piperazin-1-yl)pyrazin-2-yl)oxy)pyridin-4-yl)methyl)piperidin-4-yl)acetic acid], in that order: 10 nM and 8.6.
With `Cc1c(CN2CCC(CC(=O)O)CC2)cc(-c2cc(Cl)cc(Cl)c2)nc1Oc1ccc(N2CCN(C)CC2)nc1` [Example 386, 2-(1-((6-(3,5-Dichlorophenyl)-3-methyl-2-((6-(4-methylpiperazin-1-yl)pyridin-3-yl)oxy)pyridin-4-yl)methyl)piperidin-4-yl)acetic acid, 4 hydrochloride], the EC50 in assay [1] was 10 nM. The “furin enzyme pIC50” value in assay [2] was 8.4.
For `CNC(=O)OCC1CCN(Cc2cc(Oc3ccc(N4CCN(C)CC4)nc3)nc(-c3cc(Cl)cc(Cl)c3)c2)CC1` [Example 67, (1-((2-(3,5-dichlorophenyl)-6-((6-(4-methylpiperazin-1-yl)pyridin-3-yl)oxy)pyridin-4-yl)methyl)piperidin-4-yl)methyl methylcarbamate], in that order: 12.6 nM and 10.4.
For `CC(=O)NCC1CCN(Cc2cc(Oc3ccc(N4CCN(CC5(O)CC5)CC4)nc3)nc(-c3cc(Cl)cc(Cl)c3)c2)CC1` [Example 35, N-((1-((2-(3,5-Dichlorophenyl)-6-((6-(4-((1-hydroxycyclopropyl)methyl)piperazin-1-yl)pyridin-3-yl)oxy)pyridin-4-yl)methyl)piperidin-4-yl)methyl)acetamide], the EC50 in assay [1] is 3.16 nM. Besides, in assay [2], the “furin enzyme pIC50” value was determined as 8.8.
As for `CN1C2CCC1CN(c1ncc(Oc3cc(CN4CCC(CC(=O)O)CC4)cc(-c4cc(Cl)cc(Cl)c4)n3)cn1)C2` [Example 398, 2-(1-((2-(3,5-dichlorophenyl)-6-((2-(8-methyl-3,8-diazabicyclo[3.2.1]octan-3-yl)pyrimidin-5-yl)oxy)pyridin-4-yl)methyl)piperidin-4-yl)acetic acid], the EC50 in assay [1] was 6.31 nM. In assay [2], the “furin enzyme pIC50” value is recorded as 8.9.
For `CS(=O)(=O)CCCN1CCN(c2ncc(Oc3cc(CN4CCC(CCC(=O)O)CC4)cc(-c4cc(Cl)cc(Cl)c4)n3)cn2)CC1` [Example 272, 3-(1-((2-(3,5-dichlorophenyl)-6-((2-(4-(3-(methylsulfonyl)propyl)piperazin-1-yl)pyrimidin-5-yl)oxy)pyridin-4-yl)methyl)piperidin-4-yl)propanoic acid], in that order: 31.6 nM and 9.8.
Regarding `CC(=O)NCC1CCN(Cc2cc(Oc3ccc(N4CCNCC4)nc3)nc(-c3cc(Cl)cc(Cl)c3)n2)CC1` [Example 89, N-((1-((2-(3,5-Dichlorophenyl)-6-((6-(piperazin-1-yl)pyridin-3-yl)oxy)pyrimidin-4-yl)methyl)piperidin-4-yl)methyl)acetamide, 4 hydrochloride], the EC50 in assay [1] is 12.6 nM. For the same molecule, in assay [2], the “furin enzyme pIC50” value is listed as 8.
For `CC(=O)NCC1CCN(Cc2cc(-c3cc(Cl)cc(Cl)c3)nc(Oc3ccc(N4CCNCC4)nc3)n2)CC1` [Example 90, N-((1-((6-(3,5-Dichlorophenyl)-2-((6-(piperazin-1-yl)pyridin-3-yl)oxy)pyrimidin-4-yl)methyl)piperidin-4-yl)methyl)acetamide] the same measures were 7.94 nM and 8.5.
For `O=C(O)CCC1CCN(Cc2cc(Oc3ccc(N4CCN(CCO)CC4)nc3)nc(-c3cc(Cl)cc(Cl)c3)c2)CC1` [Example 314, 3-(1-((2-(3,5-dichlorophenyl)-6-((6-(4-(2-hydroxyethyl)piperazin-1-yl)pyridin-3-yl)oxy)pyridin-4-yl)methyl)piperidin-4-yl)propanoic acid] the same measures were 31.6 nM and 8.9.
For `CN1CCN(c2cnc(Oc3cc(CN4CCC(OC5(C(=O)O)CC5)CC4)cc(-c4cc(Cl)cc(Cl)c4)n3)cn2)CC1` [Example 353, 1-((1-((2-(3,5-dichlorophenyl)-6-((5-(4-methylpiperazin-1-yl)pyrazin-2-yl)oxy)pyridin-4-yl)methyl)piperidin-4-yl)oxy)cyclopropanecarboxylic acid], in that order: 25.1 nM and 8.1.
For `COC(=O)CCN1CCN(c2ccc(Oc3cc(CN4CCC(CNC(C)=O)CC4)cc(-c4cc(Cl)cc(Cl)c4)n3)cn2)CC1` [Example 385, Methyl 3-(4-(5-((4-((4-(Acetamidomethyl)piperidin-1-yl)methyl)-6-(3,5-dichlorophenyl)pyridin-2-yl)oxy)pyridin-2-yl)piperazin-1-yl)propanoate], in assay [1], the EC50 was 12.6 nM. In assay [2], the “furin enzyme pIC50” value came to 8.4.
For `CNCc1cc(Oc2ccc(N3CCN(CCC(=O)O)CC3)nc2)nc(-c2cc(Cl)cc(Cl)c2)c1` [Example 50, 3-(4-(5-((6-(3,5-Dichlorophenyl)-4-((methylamino)methyl)pyridin-2-yl)oxy)pyridin-2-yl)piperazin-1-yl)propanoic acid, 4 hydrochloride], the EC50 in assay [1] was 126 nM. Besides, the “furin enzyme pIC50” value in assay [2] was 8.1.
For `CC(CCN1CCN(c2ncc(Oc3cc(CN4CCCC4)cc(-c4cc(Cl)cc(Cl)c4)n3)cn2)CC1)C(=O)O` (centres unmarked) [Example 83, 4-(4-(5-((6-(3,5-dichlorophenyl)-4-(pyrrolidin-1-ylmethyl)pyridin-2-yl)oxy)pyrimidin-2-yl)piperazin-1-yl)-2-methylbutanoic acid], in that order: 50.1 nM and 8.9.
With `CC(=O)NCC1CCN(Cc2cc(Oc3cnc(N4CCNCC4)c(F)c3)nc(-c3cc(Cl)cc(Cl)c3)c2)CC1` [Example 121, N-((1-((2-(3,5-dichlorophenyl)-6-((5-fluoro-6-(piperazin-1-yl)pyridin-3-yl)oxy)pyridin-4-yl)methyl)piperidin-4-yl)methyl)acetamide], the EC50 in assay [1] is 31.6 nM. In addition, the “furin enzyme pIC50” value in assay [2] is given as 8.6.
As to `CC(CC1CCN(Cc2cc(Oc3cnc(N4CCNCC4)nc3)nc(-c3cc(Cl)cc(Cl)c3)c2)CC1)C(=O)O` (centres unmarked) [Example 269, 3-(1-((2-(3,5-dichlorophenyl)-6-((2-(piperazin-1-yl)pyrimidin-5-yl)oxy)pyridin-4-yl)methyl)piperidin-4-yl)-2-methylpropanoic acid], the EC50 in assay [1] was 25.1 nM. The “furin enzyme pIC50” value in assay [2] stood at 8.5.

The record behind these values is patent US11773078B2, “Furin inhibitors” (Glaxosmithkline Intellectual Property Development Limited, priority 2018, dated 2023).
